Data: the supplement of paper PMC5908809

Experiments:
[1] = tested on: normal NK cells expanded with K562-aAPC; test: percent inhibition of viability; higher = more inhibition; settings: 72 h, IL-2 2.5 ng/mL
Description: (§1)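 Drug sensitivity and resistance testing on K562-aAPC-expanded normal NK cells: 5 concentrations (10-fold steps over a 10,000-fold range), 72 h at 37 °C, viability by CellTiter-Glo normalised to DMSO and benzethonium chloride controls; DSS from the fitted curve.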

DERL-7 (IL-2 2.5 ng/mL) [2] = test: as above; settings: 72 h
IMC-1 (IL-2 20 ng/mL) [3] = test: as above; settings: 72 h
KAI3 (IL-2 2.5 ng/mL) [4] = test: as above; settings: 72 h
KHYG-1 (IL-2 2.5 ng/mL) [5] = test: as above; settings: 72 h
NK-92 (IL-2 2.5 ng/mL) [6] = test: as above; settings: 72 h
NK-YS (IL-2 2.5 ng/mL) [7] = test: as above; settings: 72 h
NKL (IL-2 2.5 ng/mL) [8] = test: as above; settings: 72 h
SNK-6 (IL-2 2.5 ng/mL) [9] = test: as above; settings: 72 h
YT (IL-2 2.5 ng/mL) [10] = test: as above; settings: 72 h
[11] = tested on: normal primary NK cells, pool 1 (3 donors) (IL-2 2.5 ng/mL); test: as above; settings: 72 h
[12] = tested on: normal primary NK cells, pool 1 (3 donors), resting (IL-2 0 ng/mL); test: as above; settings: 72 h
[13] = tested on: normal primary NK cells, pool 2 (3 donors) (IL-2 2.5 ng/mL); test: as above; settings: 72 h
[14] = tested on: normal primary NK cells, pool 3 (3 donors) (IL-2 2.5 ng/mL); test: as above; settings: 72 h
[15] = tested on: normal NK cells expanded with K562-aAPC; test: drug sensitivity score (DSS) (DSS units); higher = more sensitive; extreme values may be limits of the assay; settings: 72 h; IL-2 2.5 ng/mL
Description: as §1

DERL-7 (IL-2 2.5 ng/mL) [16] = test: as above; settings: 72 h
IMC-1 (IL-2 20 ng/mL) [17] = test: as above; settings: 72 h
KAI3 (IL-2 2.5 ng/mL) [18] = test: as above; settings: 72 h
KHYG-1 (IL-2 2.5 ng/mL) [19] = test: as above; settings: 72 h
NK-92 (IL-2 2.5 ng/mL) [20] = test: as above; settings: 72 h
NK-YS (IL-2 2.5 ng/mL) [21] = test: as above; settings: 72 h
NKL (IL-2 2.5 ng/mL) [22] = test: as above; settings: 72 h
SNK-6 (IL-2 2.5 ng/mL) [23] = test: as above; settings: 72 h
YT (IL-2 2.5 ng/mL) [24] = test: as above; settings: 72 h
[25] = tested on: normal primary NK cells, pool 1 (3 donors) (IL-2 2.5 ng/mL); test: as above; settings: 72 h
[26] = tested on: normal primary NK cells, pool 1 (3 donors), resting (IL-2 0 ng/mL); test: as above; settings: 72 h
[27] = tested on: normal primary NK cells, pool 2 (3 donors) (IL-2 2.5 ng/mL); test: as above; settings: 72 h
[28] = tested on: normal primary NK cells, pool 3 (3 donors) (IL-2 2.5 ng/mL); test: as above; settings: 72 h

CC(C)(C#N)c1cc(Cn2cncn2)cc(C(C)(C)C#N)c1 [Anastrozole] (max concentration tested 10000 nM)
percent inhibition of viability [%]
Settings	1 nM	10 nM	100 nM	1000 nM	10000 nM
DERL-7 (IL-2 2.5 ng/mL) [2]	1.86	1.72	1.5	4.62	1.85
IMC-1 (IL-2 20 ng/mL) [3]	-2.19	-4.02	-0.27	-6.87	-2.18
KAI3 (IL-2 2.5 ng/mL) [4]	4.34	-3.23	4.57	-3.97	4.8
KHYG-1 (IL-2 2.5 ng/mL) [5]	-3.64	-8.98	-2.57	-9.89	-0.45
NK-92 (IL-2 2.5 ng/mL) [6]	2.62	-14.9	-4.14	-11.2	0.08
NK-YS (IL-2 2.5 ng/mL) [7]	-0.21	-1.51	-0.63	-2.69	-1.18
NKL (IL-2 2.5 ng/mL) [8]	-3.4	-8.92	1.02	-7.99	1.34
SNK-6 (IL-2 2.5 ng/mL) [9]	-1.06	23.5	22.5	-18.6	2.15
YT (IL-2 2.5 ng/mL) [10]	6.09	-6.8	6.6	-5.12	8.27
[1]	-3.07	-7.42	-9.56	-10	-14.1
[11]	-5.66	-8.98	-13.5	1.93	-12.4
[12]	0.43	-12.5	-9.34	-4.56	1.51
[13]	-14.1	-1.97	-6.31	-1.14	-6.99
[14]	-11.2	-0.62	-6.71	-6.71	-5.25

Settings	drug sensitivity score
DERL-7 (IL-2 2.5 ng/mL) [16]	0
IMC-1 (IL-2 20 ng/mL) [17]	0
KAI3 (IL-2 2.5 ng/mL) [18]	0
KHYG-1 (IL-2 2.5 ng/mL) [19]	0
NK-92 (IL-2 2.5 ng/mL) [20]	0
NK-YS (IL-2 2.5 ng/mL) [21]	0
NKL (IL-2 2.5 ng/mL) [22]	0
SNK-6 (IL-2 2.5 ng/mL) [23]	0
YT (IL-2 2.5 ng/mL) [24]	0
[15]	0
[25]	0
[26]	0
[27]	0
[28]	0

Cc1ccc(NC(=O)c2ccc(CN3CC[C@H](N(C)C)C3)c(C(F)(F)F)c2)cc1Nc1nccc(-c2cncnc2)n1 [Bafetinib] (max concentration tested 1000 nM)
percent inhibition of viability [%]
Settings	0.1 nM	1 nM	10 nM	100 nM	1000 nM
DERL-7 (IL-2 2.5 ng/mL) [2]	-14	2.29	-3.89	-8.4	14.2
IMC-1 (IL-2 20 ng/mL) [3]	-6.49	-4.43	-0.85	0.31	1.78
KAI3 (IL-2 2.5 ng/mL) [4]	0.47	0.29	2.91	12	41.7
KHYG-1 (IL-2 2.5 ng/mL) [5]	-4.48	-4.63	1.74	7.43	22.3
NK-92 (IL-2 2.5 ng/mL) [6]	-11.6	-4.05	0.45	9.61	26.8
NK-YS (IL-2 2.5 ng/mL) [7]	-4.77	-6.95	-3.78	-1.77	18.9
NKL (IL-2 2.5 ng/mL) [8]	5.49	-2.75	4.28	18	50.2
SNK-6 (IL-2 2.5 ng/mL) [9]	-21	16.9	-16.6	-25.9	-21.8
YT (IL-2 2.5 ng/mL) [10]	-6.07	-5.69	-1.09	1.37	19.6
[1]	-3.13	-5.16	-2.83	2.67	30.9
[11]	-1.48	-8.42	-2.74	1.21	12
[12]	-11.6	-4.75	5.74	-0.62	2.62
[13]	-9.03	-9.08	-6.83	2.13	11.8
[14]	-3.5	-5.78	-5.64	-5.35	13.7

Settings	drug sensitivity score
DERL-7 (IL-2 2.5 ng/mL) [16]	0.06
IMC-1 (IL-2 20 ng/mL) [17]	0
KAI3 (IL-2 2.5 ng/mL) [18]	3.8
KHYG-1 (IL-2 2.5 ng/mL) [19]	1.5
NK-92 (IL-2 2.5 ng/mL) [20]	2.35
NK-YS (IL-2 2.5 ng/mL) [21]	0.42
NKL (IL-2 2.5 ng/mL) [22]	4.77
SNK-6 (IL-2 2.5 ng/mL) [23]	0
YT (IL-2 2.5 ng/mL) [24]	0.72
[15]	1.77
[25]	0.1
[26]	0
[27]	0.12
[28]	0.06

CC(O)(CS(=O)(=O)c1ccc(F)cc1)C(=O)Nc1ccc(C#N)c(C(F)(F)F)c1 (stereo unspecified) [Bicalutamide] (max concentration tested 10000 nM)
percent inhibition of viability [%]
Settings	1 nM	10 nM	100 nM	1000 nM	10000 nM
DERL-7 (IL-2 2.5 ng/mL) [2]	1.65	7.46	-4.98	5.71	5.22
IMC-1 (IL-2 20 ng/mL) [3]	3.29	5.96	8.36	9.75	42.3
KAI3 (IL-2 2.5 ng/mL) [4]	14.6	10.8	21.5	20.8	43.6
KHYG-1 (IL-2 2.5 ng/mL) [5]	3.99	22.1	3.98	27.4	19.9
NK-92 (IL-2 2.5 ng/mL) [6]	10.3	8.57	4.92	20.1	30.6
NK-YS (IL-2 2.5 ng/mL) [7]	9.7	4	13.7	9.96	23.5
NKL (IL-2 2.5 ng/mL) [8]	0.19	16.2	5.15	40.3	35.9
SNK-6 (IL-2 2.5 ng/mL) [9]	9.4	13.4	4.02	9.59	26.6
YT (IL-2 2.5 ng/mL) [10]	3.05	13.5	3.8	17.9	16.7
[1]	5.68	3.24	1.15	11.5	13.4
[11]	-3.4	-8.36	-1.19	-15.8	6.46
[12]	2.97	-8.07	-9.37	-26.1	-10.4
[13]	-0.02	-1.32	-0.86	-0.13	7.12
[14]	3.23	-2.54	5.11	-2.8	-0.48

Settings	drug sensitivity score
DERL-7 (IL-2 2.5 ng/mL) [16]	0
IMC-1 (IL-2 20 ng/mL) [17]	3.5
KAI3 (IL-2 2.5 ng/mL) [18]	7.75
KHYG-1 (IL-2 2.5 ng/mL) [19]	4.48
NK-92 (IL-2 2.5 ng/mL) [20]	3.61
NK-YS (IL-2 2.5 ng/mL) [21]	2.2
NKL (IL-2 2.5 ng/mL) [22]	8.09
SNK-6 (IL-2 2.5 ng/mL) [23]	2.16
YT (IL-2 2.5 ng/mL) [24]	1.84
[15]	0.74
[25]	0
[26]	0
[27]	0
[28]	0

CCNC(=O)CCC/C=C\C[C@@H]1[C@@H](/C=C/[C@@H](O)CCc2ccccc2)[C@H](O)C[C@@H]1O [Bimatoprost] (max concentration tested 5500 nM)
percent inhibition of viability [%]
Settings	0.55 nM	5.5 nM	55 nM	550 nM	5500 nM
DERL-7 (IL-2 2.5 ng/mL) [2]	-5.3	-2.53	-3.35	-10.4	-4.94
IMC-1 (IL-2 20 ng/mL) [3]	-1.84	-3.91	-0.72	-4.98	-0.62
KAI3 (IL-2 2.5 ng/mL) [4]	-9.15	-10.1	-8.67	-6.35	-7.76
KHYG-1 (IL-2 2.5 ng/mL) [5]	-6.16	-6.81	-5.76	-5.66	-2.75
NK-92 (IL-2 2.5 ng/mL) [6]	-8.7	-4.9	-11.6	-5.65	-8.03
NK-YS (IL-2 2.5 ng/mL) [7]	-3.18	-8.08	-6.49	-9.97	-6.34
NKL (IL-2 2.5 ng/mL) [8]	-10.6	-7.92	-13.9	-14.1	7.05
SNK-6 (IL-2 2.5 ng/mL) [9]	17.6	0.29	2.65	-15.2	-3.36
YT (IL-2 2.5 ng/mL) [10]	-1.68	-3.7	-5.41	-3.35	-5.44
[1]	-0.32	-7.8	-7.43	-6.39	-7.75
[11]	-4.1	-2.93	-7.66	5.27	3.45
[12]	5.81	-2	-9.81	4.1	6.67
[13]	-11.3	-11.2	-11.5	-10.1	-6.11
[14]	-15.9	-13.5	-18	-10.8	-6.94

Settings	drug sensitivity score
DERL-7 (IL-2 2.5 ng/mL) [16]	0.89
IMC-1 (IL-2 20 ng/mL) [17]	0.89
KAI3 (IL-2 2.5 ng/mL) [18]	0.89
KHYG-1 (IL-2 2.5 ng/mL) [19]	0.89
NK-92 (IL-2 2.5 ng/mL) [20]	0.89
NK-YS (IL-2 2.5 ng/mL) [21]	0.89
NKL (IL-2 2.5 ng/mL) [22]	0
SNK-6 (IL-2 2.5 ng/mL) [23]	0
YT (IL-2 2.5 ng/mL) [24]	0.89
[15]	0.89
[25]	0
[26]	0
[27]	0.89
[28]	0.89
